In patent publication US12384776B2, “Compounds and uses thereof” (Foghorn Therapeutics Inc., priority 2019, dated 2025) one finds IC50 data, which are given here for 44 compounds.

Usually IC50 stands for the concentration that inhibits the measured activity by half.

Sequence of Nanoluciferase-BRD9 fusion protein (3×FLAG-NLuc-BRD9) in SYO-1 cells (Q9H8M2 whole entry, the tested form may be a part): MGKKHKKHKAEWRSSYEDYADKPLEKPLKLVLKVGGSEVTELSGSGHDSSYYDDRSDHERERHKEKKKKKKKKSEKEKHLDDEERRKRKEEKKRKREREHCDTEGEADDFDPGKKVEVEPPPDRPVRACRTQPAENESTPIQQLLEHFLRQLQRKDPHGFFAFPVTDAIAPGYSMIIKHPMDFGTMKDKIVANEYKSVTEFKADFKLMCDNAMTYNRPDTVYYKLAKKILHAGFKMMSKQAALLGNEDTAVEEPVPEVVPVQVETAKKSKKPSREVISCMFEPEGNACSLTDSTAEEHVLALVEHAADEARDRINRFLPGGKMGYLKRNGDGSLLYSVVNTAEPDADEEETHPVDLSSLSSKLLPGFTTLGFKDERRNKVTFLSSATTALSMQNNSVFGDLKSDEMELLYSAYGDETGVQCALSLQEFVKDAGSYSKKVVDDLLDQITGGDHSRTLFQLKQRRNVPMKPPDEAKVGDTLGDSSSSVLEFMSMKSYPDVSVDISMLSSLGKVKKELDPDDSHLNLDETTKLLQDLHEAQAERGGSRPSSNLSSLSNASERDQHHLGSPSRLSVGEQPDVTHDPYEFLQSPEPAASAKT

The first assay has as its target Nanoluciferase-BRD9 fusion protein (3×FLAG-NLuc-BRD9) in SYO-1 cells (Homo sapiens (Human), UniProt Q9H8M2). Nature of the assay: SYO1 BRD9 NanoLuc degradation assay. Type of assay: cell-based. The settings on record: SYO-1 cells expressing 3×FLAG-NLuc-BRD9, 6 hours incubation, top dose 1 μM. An outline of the steps:
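Stable SYO-1 line expressing 3×FLAG-NLuc-BRD9, treated with 10-point 3-fold dilutions (top 1 μM final) for 6 hours. Nanoluciferase luminescence read with Nano-Glo reagent. % inhibition relative to DMSO (high control) and 1 μM reference BRD9 degrader (low control).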
In the case of `CNC(=O)N1CCc2c(-c3cc(OC)c(CN4CCC(CCN5CCC6(CC5)CC(Oc5ccc7c(c5)C(=O)N(C5CCC(=O)NC5=O)C7=O)C6)CC4)c(OC)c3)cn(C)c(=O)c2C1` (centres unmarked) [Compound D251], the half-maximal inhibitory concentration (IC50) was less than 10 nM.

For `CNC(=O)N1CCc2c(-c3cc(OC)c(CN4CCN(CCC5CCN(c6ccc7c(c6)C(=O)N(C6CCC(=O)NC6=O)C7=O)CC5)C(C)C4)c(OC)c3)cn(C)c(=O)c2C1` (centres unmarked) [Compound D100], the 50% inhibitory concentration (IC50) is less than 10 nM.

Consider `CNC(=O)N1CCc2c(-c3cc(OC)c(CN4CCC(CN5CCN(c6ccc7c(c6)C(=O)N(C6CCC(=O)NC6=O)C7=O)CC5)C4)c(OC)c3)cn(C)c(=O)c2C1` (centres unmarked) [Compound D169], for which the 50% inhibitory concentration (IC50) is less than 10 nM.

Regarding `CNC(=O)N1CCc2c(-c3cc(OC)c(CN4CCN(CCN5CCC(c6ccc7c(c6)CN(C6CCC(=O)NC6=O)C7=O)CC5)CC4)c(OC)c3)cn(C)c(=O)c2C1` (centres unmarked) [Compound D72], the IC50 is less than 10 nM.

`CNC(=O)N1CCc2c(-c3cc(OC)c(CN4CCC(C(=O)N5CCC6(CC5)CC(Oc5ccc7c(c5)C(=O)N(C5CCC(=O)NC5=O)C7=O)C6)CC4)c(OC)c3)cn(C)c(=O)c2C1` (centres unmarked) [Compound D254] displayed an IC50 of less than 10 nM.

`[2H]C([2H])([2H])n1cc(-c2cc(OC)c(CN3CCN(CCC4CCN(c5ccc6c(c5)C(=O)N(C5CCC(=O)NC5=O)C6=O)CC4)CC3)c(OC)c2)c2c(c1=O)CN(C(=O)NC)CC2` (centres unmarked) [Compound D45] displayed an IC50 of less than 10 nM.

For `CNC(=O)N1CCc2c(-c3cc(OC)c(CN4CC(C#Cc5ccc6c(c5)C(=O)N(C5CCC(=O)NC5=O)C6=O)C4)c(OC)c3)cn(C)c(=O)c2C1` (centres unmarked) [Compound D142], the IC50 was less than 10 nM.

With `CNC(=O)N1CCc2c(-c3cnc(CN4CCC(CCN5CCN(c6ccc7c(c6)C(=O)N(C6CCC(=O)NC6=O)C7=O)CC5)CC4)c(OC)c3)cn(C)c(=O)c2C1` (centres unmarked) [Compound D92], the half-maximal inhibitory concentration (IC50) lay in the range of 10 to 100 nM.

As for `COc1cc(-c2cn(C)c(=O)c3c2CCN(C(=O)NC2CC4CN(CCOc5ccc6c(c5)C(=O)N(C5CCC(=O)NC5=O)C6=O)CC4C2)C3)cc(OC)c1CN(C)C` (centres unmarked) [Compound D273], the IC50 fell in the range of 100 to 1000 nM.

`CNC(=O)N1CCc2c(-c3cc(OC)c(CN4CCN(CCC5CCN(c6ccc7c(c6)C(=O)N(C6CCC(=O)NC6=O)C7=O)CC5)C5CC54)c(OC)c3)cn(C)c(=O)c2C1` (centres unmarked) [Compound D96] returned an IC50 of less than 10 nM.

On to `COc1cc(-c2cn(C)c(=O)c3c2CCN(C(=O)NC2CCC4CN(CCCCN5CCN(c6ccc7c(c6)C(=O)N(C6CCC(=O)NC6=O)C7=O)CC5)CC42)C3)cc(OC)c1CN(C)C` (centres unmarked) [Compound D221], for which the IC50 lay in the range of 100 to 1000 nM.

In the case of `CNC(=O)N1Cc2c(-c3cc(OC)c(CN4CCC5(CC4)CN(c4ccc6c(c4)C(=O)N([C@@H]4CCC(=O)NC4=O)C6=O)C5)c(OC)c3)cn(C)c(=O)c2C1` [Compound D300], the half-inhibitory concentration (IC50) was less than 10 nM.

For the compound `COc1cc(-c2cn(C)c(=O)c3c2CCN(C(=O)NCCCN2CCC(OCC4CCN(c5ccc6c(c5)C(=O)N(C5CCC(=O)NC5=O)C6=O)CC4)C2)C3)cc(OC)c1CN(C)C` (centres unmarked) [Compound D229], the 50% inhibitory concentration (IC50) was in the range of 10 to 100 nM.

The compound `CNC(=O)N1CCc2c(-c3cc(OC)c(CN4CCN(CCC5CCN(c6ccc7c(c6)C(=O)N(C6CCC(=O)NC6=O)C7=O)CC5)CC4C)c(OC)c3)cn(C)c(=O)c2C1` (centres unmarked) [Compound D99] gave a half-maximal inhibitory concentration (IC50) of less than 10 nM.

For `CNC(=O)N1CCc2c(-c3cc(OC)c(CN4CCC(CN5CCC6(CC5)CN(c5ccc7c(c5)C(=O)N(C5CCC(=O)NC5=O)C7=O)C6)CC4)c(OC)c3)cn(C)c(=O)c2C1` (centres unmarked) [Compound D136], the IC50 is less than 10 nM.

Compound `COc1cc(-c2cn(C)c(=O)c3c2CCN(C(=O)NC2CC4CN(CCCCN5CCN(c6ccc7c(c6)C(=O)N(C6CCC(=O)NC6=O)C7=O)CC5)CC4C2)C3)cc(OC)c1CN(C)C` (centres unmarked) [Compound D245] gave a concentration for half-maximal inhibition (IC50) of 100 to 1000 nM.

As for `CNC(=O)N1CCc2c(-c3cc(OC)c(CN4CCC(CN(C)C5CCN(c6ccc7c(c6)C(=O)N(C6CCC(=O)NC6=O)C7=O)CC5)CC4)c(OC)c3)cn(C)c(=O)c2C1` (centres unmarked) [Compound D195], the half-inhibitory concentration (IC50) is less than 10 nM.

`CNC(=O)N1CCc2c(-c3cc(OC)c(CN4CCC(CN5CCC6(CC5)CC(Oc5ccc7c(c5)C(=O)N(C5CCC(=O)NC5=O)C7=O)C6)CC4)c(OC)c3)cn(C)c(=O)c2C1` (centres unmarked) [Compound D253]: the half-inhibitory concentration (IC50) was less than 10 nM.

In the case of `CNC(=O)N1CCc2c(-c3cc(F)c(CN4CCC(CCN5CCN(c6ccc7c(c6)C(=O)N(C6CCC(=O)NC6=O)C7=O)CC5)CC4)c(OC)c3)cn(C)c(=O)c2C1` (centres unmarked) [Compound D91], the half-maximal inhibitory concentration (IC50) is less than 10 nM.

For `COc1cc(-c2cn(C)c(=O)c3c2CCN(C(=O)NCCN2CCC4C2CN4c2ccc4c(c2)C(=O)N(C2CCC(=O)NC2=O)C4=O)C3)cc(OC)c1CN(C)C` (centres unmarked) [Compound D184], the IC50 was in the range of 10 to 100 nM.

`CNC(=O)N1CCc2c(-c3cc(OC)c(CN4CCC(CCN5C(C)CN(c6ccc7c(c6)C(=O)N(C6CCC(=O)NC6=O)C7=O)CC5C)CC4)c(OC)c3)cn(C)c(=O)c2C1` (centres unmarked) [Compound D145] gave an IC50 of less than 10 nM.

`CNC(=O)N1CCc2c(-c3cc(OC)c(CN4CCC(CCN5CC6CN(c7ccc8c(c7)C(=O)N(C7CCC(=O)NC7=O)C8=O)CC6C5)CC4)c(OC)c3)cn(C)c(=O)c2C1` (centres unmarked) [Compound D196] yielded a half-maximal inhibitory concentration (IC50) of less than 10 nM.

Compound `COc1cc(-c2cn(C)c(=O)c3c2CCN(C(=O)NCC2CC4(CCN(c5ccc6c(c5)C(=O)N(C5CCC(=O)NC5=O)C6=O)CC4)C2)C3)cc(OC)c1CN(C)C` (centres unmarked) [Compound D110] came in with an IC50 of less than 10 nM.

As to `CNC(=O)N1CCc2c(-c3cc(OC)c(CN(C)c4ccc5c(c4)C(=O)N(C4CCC(=O)NC4=O)C5=O)c(OC)c3)cn(C)c(=O)c2C1` (centres unmarked) [Compound D112], the IC50 is less than 10 nM.

In turn, `CNC(=O)N1CCc2c(-c3cc(OC)c(CN4CCC(CCN5CCN(c6cc(F)c7c(c6)C(=O)N(C6CCC(=O)NC6=O)C7=O)CC5)CC4)c(OC)c3)cn(C)c(=O)c2C1` (centres unmarked) [Compound D86] showed an IC50 of less than 10 nM.

`COc1cc(-c2cn(C)c(=O)c3c2CCN(C(=O)NCC2COC4(CCN(c5ccc6c(c5)C(=O)N(C5CCC(=O)NC5=O)C6=O)CC4)C2)C3)cc(OC)c1CN(C)C` (centres unmarked) [Compound D121] had a concentration for half-maximal inhibition (IC50) of less than 10 nM.

Consider `COc1cc(-c2cn(C)c(=O)c3c2CCN(C(=O)NC2C[C@@H]4CN(CCCCN5CCN(c6ccc7c(c6)C(=O)N(C6CCC(=O)NC6=O)C7=O)CC5)C[C@H]24)C3)cc(OC)c1CN(C)C` (some centres unmarked) [Compound D247], for which the IC50 lay in the range of 100 to 1000 nM.

The compound `COC(=O)N1CCc2c(-c3cc(OC)c(CN4CCC(CCN5CCN(c6ccc7c(c6)C(=O)N(C6CCC(=O)NC6=O)C7=O)CC5)CC4)c(OC)c3)cn(C)c(=O)c2C1` (centres unmarked) [Compound D64] gave an IC50 of less than 10 nM.

Compound `CNC(=O)N1CCc2c(-c3cc(OC)c(CN4CCC(CCCN5Cc6cc7c(cc6C5)C(=O)N(C5CCC(=O)NC5=O)C7=O)CC4)c(OC)c3)cn(C)c(=O)c2C1` (centres unmarked) [Compound D178] gave an IC50 of less than 10 nM.

For the compound `CNC(=O)N1CCc2c(-c3cc(OC)c(CN4CCN(c5nn(C6CCC(=O)NC6=O)c(=O)n5C)CC4)c(OC)c3)cn(C)c(=O)c2C1` (centres unmarked) [Compound D62], the 50% inhibitory concentration (IC50) is no less than 1000 nM.

`COc1cc(-c2cn(C)c(=O)c3c2CCN(C(=O)NCC2CC4CN(c5ccc6c(c5)C(=O)N([C@H]5CCC(=O)NC5=O)C6=O)CC4C2)C3)cc(OC)c1CN(C)C` (some centres unmarked) [Compound D122] had an IC50 of 10 to 100 nM.

For `CNC(=O)N1CCc2c(-c3cc(OC)c(CN4CCC(CCN5C6CC5CN(c5ccc7c(c5)C(=O)N(C5CCC(=O)NC5=O)C7=O)C6)CC4)c(OC)c3)cn(C)c(=O)c2C1` (centres unmarked) [Compound D153], the IC50 is 10 to 100 nM.

Staying with this assay, now noted: SYO-1 cells, 6 hours, Table 6C.
`CNC(=O)N1CCc2c(-c3cc(OC)c(CN4CCN(CCC5CCN(c6ccc7c(c6)C(=O)N(C6CCC(=O)NC6=O)C7)CC5)CC4COC)c(OC)c3)cn(C)c(=O)c2C1` (centres unmarked) [Compound D340] had a 50% inhibitory concentration (IC50) of less than 10 nM.

`CNC(=O)N1CCc2c(-c3cc(OC)c(CN4CCC(CN5CCC6(CN(c7ccc8c(c7)C(=O)N(C7CCC(=O)NC7=O)C8)C6)C(F)(F)C5)CC4)c(OC)c3)cn(C)c(=O)c2C1` (centres unmarked) [Compound D315] displayed a half-maximal inhibitory concentration (IC50) of less than 10 nM.

Compound `COc1cc(-c2cn(C)c(=O)c3c2CCC3)cc(OC)c1CN1CCN(c2ccc3c(c2)C(=O)N(C2CCC(=O)NC2=O)C3=O)CC1` (centres unmarked) [Compound D366] showed an IC50 of less than 10 nM.

`COc1cc(-c2cn(C)c(=O)c3c2N(C)CC3)cc(OC)c1CN1CC(CN2CCC3(CC2)CN(c2ccc4c(c2)C(=O)N(C2CCC(=O)NC2=O)C4)C3)C1` (centres unmarked) [Compound D352] showed an IC50 of no less than 10 nM.

`CNC(=O)N1CCc2c(-c3cc(OC)c(C4CN(c5ccc6c(c5)C(=O)N(C5CCC(=O)NC5=O)C6=O)C4)c(OC)c3)cn(C)c(=O)c2C1` (centres unmarked) [Compound D303] showed a 50% inhibitory concentration (IC50) of less than 10 nM.

`[2H]C([2H])([2H])n1cc(-c2cc(OC)c(CN3[C@H](C)CN(CCC4CCN(c5ccc6c(c5)CN(C5CCC(=O)NC5=O)C6=O)CC4)C[C@H]3C)c(OC)c2)c2c(c1=O)CN(C(=O)NC)CC2` (some centres unmarked) [Compound D318] registered an IC50 of less than 10 nM.

`COc1cc(-c2cn(C)c(=O)c3c2CCC3)cc(OC)c1CN1CCN(c2ccc3c(c2)C(=O)N(C2CCC(=O)NC2=O)C3)CC1` (centres unmarked) [Compound D364] had an IC50 of less than 10 nM.

In turn, `COc1cc(-c2cn(C)c(=O)c3c2COC3)cc(OC)c1CN1CCC2(CC1)CN(c1ccc3c(c1)C(=O)N(C1CCC(=O)NC1=O)C3=O)C2` (centres unmarked) [Compound D358] registered an IC50 of less than 10 nM.

With `CNC(=O)N1CCc2c(-c3cc(OC)c(CN4CCN(CCC5CCN(c6ccc7c(c6)CN(C6CCC(=O)NC6=O)C7=O)CC5)CC45CC5)c(OC)c3)cn(C)c(=O)c2C1` (centres unmarked) [Compound D310], the 50% inhibitory concentration (IC50) was less than 10 nM.

With `CNC(=O)N1CCc2c(-c3cc(OC)c(CN4CCC(C(N5CCC6(CC5)CC(Oc5ccc7c(c5)C(=O)N(C5CCC(=O)NC5=O)C7=O)C6)C(F)(F)F)CC4)c(OC)c3)cn(C)c(=O)c2C1` (centres unmarked) [Compound D343], the concentration for half-maximal inhibition (IC50) is no less than 1000 nM.

With `CNC(=O)N1CCc2c(-c3cc(OC)c(CN4CCC5(CN(c6ccc7c(c6)C(=O)N(C6CCC(=O)NC6=O)C7)C5)C(F)(F)C4)c(OC)c3)cn(C)c(=O)c2C1` (centres unmarked) [Compound D306], the IC50 is less than 10 nM.

`COc1cc(-c2cn(C)c(=O)c3c2COC3)cc(OC)c1CN1CC(C#Cc2ccc3c(c2)CN(C2CCC(=O)NC2=O)C3=O)C1` (centres unmarked) [Compound D368] returned a concentration for half-maximal inhibition (IC50) of less than 10 nM.
